Experimental data reported in article PMC10814725, “In Vitro Anti-Inflammatory Study of Limonoids Isolated from Chisocheton Plants” (Current Issues in Molecular Biology, 2024).
Like-named read-outs stand apart in the source and are kept apart here.

Key:
[1] = tested on: TLR4-dependent NF-kB activation in HEK-Blue hTLR4 cells; experiment: SEAP reporter gene assay, antagonist effect on LPS-stimulated TLR4-dependent NF-κB activation; format: cell-based, human; settings: 20 µM, LPS 10 ng/mL, 18 h, vs. LPS stimulated-only group
Protocol: The SEAP Reporter Gene Assay was conducted as previously described. HEK-Blue^TM hTLR4 cells (2 × 10^4 cells/well) were seeded in 96-well plates and were serum-starved for 24 h at 37 °C in a 5% carbon dioxide atmosphere. After incubation, the culture medium was aspirated, and the cells were washed with saline. High-glucose D-MEM supplemented with 0.1% FBS and 1% penicillin-streptomycin was added and treated with or without the 17 limonoids at a concentration of 20 µM for 1 h, followed by LPS addition at a concentration of 10 ng/mL for the LPS-stimulated group. After incubation at 37 °C for 18 h, the supernatants were collected and PNPP in PBS solution (0.8 mM, 100 μL) was added, followed by 4 h of shading at 25 °C. The optical density (OD) of the samples was measured at 405 nm using a microplate reader (BioTek Cytation 5 Cell Imaging Multimode Reader, Agilent Technologies, Santa Clara, CA, USA).

IL-1β = experiment: ELISA of IL-1β production in LPS-stimulated THP-1 cells; format: cell-based, human; settings: 10 µM, compared to LPS (+)-stimulated group
Protocol: The logarithmic growth phase of THP-1 cells was achieved by seeding in 96-well plates at a density of 5 × 10^4 cells/well and differentiated for 24 h in the presence of PMA (0.5 μM solution in medium). After 24 h of incubation, the culture medium was removed from the 96-well plate and the cells were washed with PBS. Fresh RPMI-1640 medium supplemented with 0.1% FBS and 1% Penicillin–Streptomycin was added to each well and incubated at 37 °C overnight. The cells were pretreated with 17 limonoids at the corresponding concentration for 1 h, followed by the addition of LPS (10 ng/mL) and then incubation at 37 °C for 18 h. Finally, 50 μL of each culture supernatant solution was taken to determine the concentrations of IL-6, MCP-1, and IL-1β using the corresponding commercially available human ELISA kits following the manufacturer’s instructions. The analyte concentration in the supernatant was measured in pg/mL, and the inhibition level was expressed as a fold change compared to the LPS (−) control group. To determine the IC50 value, the dose-response data were normalized to the LPS-stimulated-only group, and the percentage of inhibition was calculated using the following formula: % Inhibition=(Absorbance of LPS+ control−Absorbance of compound treatment with LPS)/(Absorbance of LPS+ control−Absorbance of LPS− control)×100
Furthermore, the % inhibition data were interpolated into linear equations to determine the IC50 values.

[2] = Cell viability by CCK-8, HEK-Blue hTLR4 cells; format: cell-based; settings: human
How it was run: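 CCK-8 read-out. HEK-Blue hTLR4 cells (2 × 10^4/well) serum-starved 24 h, then in high-glucose D-MEM with 0.1% FBS pretreated ±20 µM limonoids for 1 h before 10 ng/mL LPS; CCK-8 (10% v/v) added after 18 h and incubated 1 h at 37 °C. RAW264.7 viability measured likewise with CCK-8.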

[3] = Cell viability by CCK-8, THP-1 cells; format: cell-based; settings: human, PMA-differentiated THP-1 cells; for CC50 at 18 h: concentration causing 50% cytotoxicity against THP-1 cells
How it was run: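 THP-1 cells seeded at 5 × 10^4 cells/well in 96-well plates were differentiated with 0.5 μM PMA for 24 h, washed with PBS, and held overnight at 37 °C in RPMI-1640 containing 0.1% FBS and 1% penicillin–streptomycin. After 1 h compound pretreatment and 18 h further incubation, 10% (v/v) CCK-8 was added for 1 h. Absorbance was read at 405 nm, and background-corrected viability was expressed relative to untreated control cells.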

phosphorylated-p38 MAPK = experiment: Western blotting of phosphorylated-p38 MAPK in LPS-stimulated THP-1 cells; format: cell-based, human; settings: 10 µM, LPS 10 ng/mL, 18 h, compared to LPS (+) group
Protocol: THP-1 cells were seeded at a density of 1 × 10^6 cells/well in 24-well plates. The cells were then pretreated with a concentration of 10 µM of compounds 3, 5, 9, or 15 for 1 h. Subsequently, LPS (10 ng/mL) was added to the cells, which were incubated for 18 h. The protein concentrations were determined using a bicinchoninic acid (BCA) assay kit.
For Western blot analysis, proteins were separated by SDS-PAGE and transferred onto a polyvinylidene fluoride (PVDF) membrane. The membranes were blocked with 2.5% BSA in Tris-buffered saline-Tween (TBST) for 1 h at room temperature. After three washes with TBST, the membranes were incubated with a diluted primary antibody solution (anti-phosphorylated-p38 MAPK or anti-p38 MAPK) at a 1:1000 dilution for 1 h at room temperature. After three washes with TBS-T, the membranes were incubated with a secondary antibody conjugated to horseradish peroxidase (HRP; 1:4000 dilution) for 30 min at room temperature and subsequently detected by chemiluminescence. Finally, the bands were visualized and quantified using an ImageQuant 800 GxP system (Cytiva, MA, USA). The results were expressed as ratios relative to the reference protein β-actin.

in vitro = format: cell-based; settings: mouse
[4] = Viability Cell (%) HEK-Blue hTLR4 LPS-Induced (10 ng/mL)
[5] = Viability Cell (%) HEK-Blue hTLR4 Without LPS
[6] = LPS 10 ng/mL, read-out: Viability Cell (%) THP-1 LPS-Induced (10 ng/mL)
[7] = without LPS, read-out: Viability Cell (%) THP-1 Without LPS

CC(=O)O[C@H]1[C@@H](O)[C@@]2(C)C3=CC[C@@H](c4ccoc4)[C@]3(C)CC[C@@H]2[C@@]2(C)C=CC(=O)C(C)(C)[C@H]12 [Compound 3, 6α-O-acetyl-7-deacetylnimocinol]
Inhibition of SEAP release (NF-κB activity inhibition) [1]: significantly inhibited SEAP release
Effect on IL-1β level (IL-1β): significantly reduced
viability at 18 h, 20 µM [2, 4]: 6.79 ± 6.22%
viability at 18 h, 20 µM [2, 5]: 20.7 ± 3.08%
viability at 18 h, 10 µM [3, 6]: > 99.9%
viability at 18 h, 10 µM [3, 7]: > 99.9%
CC50 at 18 h [3]: 20.3 µM
Effect on p-p38 MAPK levels (phosphorylated-p38 MAPK): significantly suppressed
viability at 5 µM (in vitro): 90.3 ± 5.24%
viability at 10 µM (in vitro): 91.4 ± 8.26%
viability at 20 µM (in vitro): 70.2 ± 2.29%

CC(=O)O[C@H]1[C@@H](OC(C)=O)[C@@]2(C)C3=CC[C@@H](c4ccoc4)[C@]3(C)CC[C@@H]2[C@@]2(C)C=CC(=O)C(C)(C)[C@H]12 [Compound 5, dysobinin]
Inhibition of SEAP release (NF-κB activity inhibition) [1]: significantly inhibited SEAP release
Effect on IL-1β level (IL-1β): significantly reduced
viability at 18 h, 20 µM [2, 4]: 23.6 ± 2.61%
viability at 18 h, 20 µM [2, 5]: 43.3 ± 6.02%
viability at 18 h, 10 µM [3, 6]: 52 ± 6.51%
viability at 18 h, 10 µM [3, 7]: 66.7 ± 6.02%
CC50 at 18 h [3]: 14.6 µM
Effect on p-p38 MAPK levels (phosphorylated-p38 MAPK): significantly suppressed
viability at 5 µM (in vitro): 83.6 ± 8.91%
viability at 10 µM (in vitro): 84.29 ± 0.28%
viability at 20 µM (in vitro): 3.19 ± 1.24%
